Results published in patent publication US20230146533A1, “KERATIN BD-10, PREPARATION METHOD THEREFOR AND PHARMACEUTICAL COMPOSITION AND USE THEREOF” (INSTITUTE OF MATERIA MEDICA, CHINESE ACADEMY OF MEDICAL …, priority 2019, published 2023).
Structures can show the parent of a compound that is named as a salt. Marks after values point to notes of the source that are not given here.

Key:
[1] = test system: acetic acid writhing of ICR mice; assay: Acetic acid writhing test in ICR mice; type: in vivo
Experimental: Animals: male ICR mice; Drugs and reagents: aspirin, physiological saline, glacial acetic acid, protein BD-10. Experiment grouping: • Model group; • Aspirin 300 mg/kg group; • Protein BD-10, 50 mg/kg group, 200 mg/kg group.
One day after the experimental animals adapt to the environment, Aspirin 300 mg/kg, protein BD-10 50 mg/kg, 200 mg/kg were given orally one hour in advance, and the administration volume was 10 ml/kg; Then, 0.6% acetic acid solution was injected intraperitoneally, and the incubation period (seconds) and frequency of writhing in the animal was observed within 15 minutes.
Calculate the mean and standard error of the data in each group. Compared with the model group by TTEST, P<0.05 was considered as statistically different.

[2] = test system: yeast-induced fever model in rats; assay: Yeast-induced fever model in SD rats; type: in vivo; settings: aspirin 300 mg/kg oral
Experimental: Animals: 230-260 grams of male SD rats; Medicines: yeast (OXOID LP0021), aspirin (SIGMA A2093), protein BD-10; Instruments: electronic balance (SARTORIUS BP121S type), electronic clinical thermometer (CITIZEN CT-513W type). Experiment grouping: • Normal control group; • Model group: yeast fever model; • Positive control group: Aspirin 300 mg/kg group; • Protein BD-10, 10 mg/kg group, 50 mg/kg group.
(§1) Preparation of experimental animals: After the experimental animals adapt to the experimental environment (temperature 22° C.±2° C., relative humidity 50%±2%) for 1 day. Pre-adaptation to measure rectal temperature at 8:00 and 15:00, rats were fasted and water was taken freely 12 h before experiment, and let the animal to empty its feces before measuring the rectal temperature. Apply petroleum jelly to the electronic thermometer probe before each temperature measurement. Insert the rat rectum 2 cm (can be marked at 2 cm to ensure that the depth of each insertion is consistent), and record the body temperature after the reading is stable.
(§2) Subcutaneous injection of dry yeast to replicate rat fever model: The body temperature of the rats was measured before modeling. Qualified rats with a body temperature of 36.2-37.3° C. were selected and randomly divided into groups with 8 rats in each group. After oral administration of aspirin and different doses of protein BD-10, 20% yeast suspension (10 ml/kg) was injected subcutaneously immediately, and the normal control group was injected intraperitoneally with an equal volume of normal saline. The body temperatures of the rats were monitored after 2 hours for a total of 8 hours.
(§3) According to the body temperature measured at each time point on the day of the experiment, calculate the mean, standard deviation and standard error of the body temperature of each group of rats. The data of each group was compared with TTEST, and P<0.05 was considered as a significant difference.

[3] = test system: lipopolysaccharide (LPS) induced fever in SD rats; assay: Lipopolysaccharide (LPS) induced fever model in SD rats; type: in vivo; settings: aspirin 300 mg/kg oral
Experimental: Animals: 230-260 grams of male SD rats; Drugs: lipopolysaccharide (LPS, SIGMA L-2880), aspirin (SIGMA A2093), protein BD-10; Instruments: electronic balance (SARTORIUS BP121S type), electronic clinical thermometer (CITIZEN CT-513W type).
Method: the method of intraperitoneal injection of Lipopolysaccharide to replicate rat fever model.
as §1
as §2, with “Intraperitoneal” for “Subcutaneous”, “lipopolysaccharide” for “dry yeast”, “lipopolysaccharide (20 μg/kg, 2” for “20% yeast suspension (10”, “intraperitoneally” for “subcutaneously”
as §3

[4] = test system: mice cough induced by ammonia water; assay: Antitussive test, cough induced by ammonia water in mice; type: in vivo, ICR mice
Experimental: Animals: male ICR mice; Drugs and reagents: dextromethorphan hydrobromide, ammonia water, 0.2% CMC-Na, protein BD-10; Apparatus: Compressed nebulizer (403T type), balance (XS105DU type). Experiment grouping: • Solvent control group; • Dextromethorphan 15 mg/kg group; • Protein BD-10, 20 mg/kg group, 50 mg/kg group.
Dextromethorphan and different doses of protein BD-10 (administration volume 10 ml/kg) were given orally in groups, and the solvent control group was given the same volume of distilled water. One hour later, mice were put into a sealed box and atomized 10% ammonia water for 10 seconds, and then observed and recorded the incubation period of cough in mice and the number of coughs in 2 minutes.
Record the time point of oral administration, the time point of atomization experiment, the incubation period of mice cough and the number of coughs within 2 minutes, respectively. The incubation period of cough refers to the number of seconds from the start of the atomization of ammonia to the occurrence of cough. The performance of coughing in mice is based on contraction of their abdominal muscles (breast contraction) and opening their mouths at the same time. Calculate the mean and standard error of each group of data, and use TTEST to compare the model group with other groups, and P<0.05 is considered as a significant difference.

[5] = test system: PLO-induced epilepsy in mice; assay: Pilocarpine (PLO) induced convulsive epilepsy in mice; type: in vivo, ICR mice; set-up: mortality rate: unit not given here; settings: Diazepam 2 mg/kg, PLO 225 mg/kg i.p.
Experimental: Animals: male ICR mice; Drugs: Pilocarpine HCl (PLO, pilocarpine, pilocarpine hydrochloride), Diazepam (diazepam tablets), protein BD-10.
Experiment grouping: • Model group: • Diazepam 2 mg/kg group; • Protein BD-10, 50 mg/kg group, 200 mg/kg group.
The drug was administered once in the afternoon the day before modeling, PLO-225 mg/kg (modeling agent) was injected intraperitoneally 1 hour after the test drug was administered intragastrically on the day of modeling. And positive drug can be administered once 20 minutes before modeling. Observe for 30 minutes after PLO injection.
Observation indicators: (1)Seizure situation: the time of seizures from Grade II to Grade IV; (2)the time to death.
(§4) Seizure grade: Refer to Racine grading standard: Grade 0: No response; Grade I: manifested as twitching of facial muscles or the corners of the mouth; Grade II: can nod; Grade III: twitching of one limb; Grade IV: rigidity or body twitching; Grade V: generalized epilepsy (generalized tonic seizures).
Count the number of Grade IV seizures and deaths in each group of mice in the experiment; Grade II, III and IV incubation period. […] Chi-square test was used for statistics of the number of cases. The mean value and standard error of the incubation period were calculated, and TTEST was used to compare the model group with other groups. P<0.05 was considered as a significant difference.

[6] = test system: PTZ-induced epilepsy in mice; assay: Pentylenetetrazole (PTZ) induced epilepsy in mice; type: in vivo, ICR mice; settings: Retigabine 60 mg/kg, PTZ 65 mg/kg i.p.
Experimental: Medicines: Pentylenetetrazol (PTZ), Retigabine, Protein BD-10.
Experiment grouping: • Model group; • Retigabine 60 mg/kg group; • Protein BD-10, 50 mg/kg group, 200 mg/kg group;
The drug was administered once in the afternoon the day before modeling, On the day of modeling, PTZ-65 mg/kg (modeling agent) was injected intraperitoneal 1 hour after the test drug was administered intragastrically, and the positive drug can be administered once half an hour before modeling. Continue to observe for 15 minutes after injection of PTZ.
Observation index: (1)Seizure situation: the time of seizures from Grade III to Grade VI; (2)Death situation
as §4
Count the cases of seizures and deaths in each group of mice in the experiment; Grade III and IV incubation period. The incubation period of mice that have not attacked to Grade IV is recorded as the maximum of 900 seconds. Chi-square test was used for statistics of the number of cases. Calculate the mean and standard error of the incubation period. Use TTEST to compare the model group with other groups, and P<0.05 is considered as a significant difference.

[7] = aspirin 300 mg/kg oral one hour before 0.6% acetic acid i.p., observed within 15 minutes
[8] = 2, 4, 6 and 8 hours after modeling, vs model group P<0.05
[9] = 20% yeast suspension 10 ml/kg s.c., SD rats

SMILES: CC(=O)Oc1ccccc1C(=O)O [aspirin, reference compound]
- Effect on writhing incubation period and times of writhing (in words) ([1]; Aspirin 300 mg/kg, vs model group P<0.05): can significantly delay the incubation period of writhing and reduce the times of writhing
- Frequency of writhing [1, 7]: 15.2 ± 2.9 times
- Writhing incubation period [1, 7]: 290.3 ± 37.0 s
- Effect on body temperature of model rats (in words) [2, 8]: can effectively inhibit the increase in body temperature
- Body temperature 2 hours after modeling [2, 9]: 37.0 ± 0.1 °C
- Body temperature 4 hours after modeling [2, 9]: 37.0 ± 0.1 °C
- Body temperature 6 hours after modeling [2, 9]: 37.0 ± 0.1 °C
- Body temperature 8 hours after modeling [2, 9]: 37.0 ± 0.1 °C
- Effect on body temperature of model rats (in words) [3, 8]: can effectively inhibit the increase in body temperature
- Body temperature 2 hours after modeling ([3]; LPS 20 μg/kg i.p., SD rats): 36.8 ± 0.1 °C
- Body temperature 4 hours after modeling ([3]; LPS 20 μg/kg i.p., SD rats): 36.9 ± 0.2 °C
- Body temperature 6 hours after modeling ([3]; LPS 20 μg/kg i.p., SD rats): 36.8 ± 0.2 °C
- Body temperature 8 hours after modeling ([3]; LPS 20 μg/kg i.p., SD rats): 36.9 ± 0.1 °C

SMILES: COc1ccc2c(c1)[C@]13CCCC[C@@H]1[C@H](C2)N(C)CC3 [Dextromethorphan, dextromethorphan hydrobromide, reference compound]
- Incubation period (cough) ([4]; Dextromethorphan 15 mg/kg oral, 10% ammonia water atomized 10 seconds one hour later, X ± SEM): 38.4 ± 4.5 s
- Number of coughs ([4]; Dextromethorphan 15 mg/kg oral, 10% ammonia water atomized 10 seconds one hour later, coughs within 2 minutes, X ± SEM): 34.0 ± 2.9
- Effect on incubation period and number of coughs (in words) ([4]; dextromethorphan 15 mg/kg group, vs solvent control group P<0.05): significant improvement

SMILES: CN1C(=O)CN=C(c2ccccc2)c2cc(Cl)ccc21 [Diazepam, reference compound]
- Grade IV seizure rate ([5]; 10 mice): 0** %
- mortality rate ([5]; 10 mice): 0
- Grade II seizure incubation period ([5]; mean ± SEM): 109 ± 8 s
- Grade III seizure incubation period ([5]; mean ± SEM): 182 ± 14 s
- Grade IV seizure incubation period ([5]; mean ± SEM, mice not reaching Grade IV recorded as maximum 1800 seconds): 1800 ± 0 s
- Cases of deaths ([5]; of 10 mice): 0
- Cases of Grade IV ([5]; of 10 mice, 30 minutes observation): 0**

SMILES: CCOC(=O)Nc1ccc(NCc2ccc(F)cc2)cc1N [Retigabine, reference compound]
- Grade IV seizure rate ([6]; 10 mice): 20%**
- mortality rate ([6]; 10 mice): 0%
- Grade III seizure incubation period ([6]; mean ± SEM): 83 ± 7 s
- Grade IV seizure incubation period ([6]; mean ± SEM, mice not reaching Grade IV recorded as maximum 900 seconds): 745 ± 103 s
- Cases of deaths ([6]; of 10 mice): 0
- Cases of Grade IV ([6]; of 10 mice, 15 minutes observation): 2**
